From US12285397B2, “Use of (s)-3-amino-4-(difluoromethylenyl) cyclopent-1-ene-1-carboxylic acid and related compounds, (1S,3S)-3-amino-4-(difluoromethylidene) cyclopentane-1-carboxylic acid and vigabatrin in the treatment of developmental disorders” (Ovid Therapeutics Inc., priority 2018, dated 2025)
Where two headings read alike, the source gives them in different places.

Experiments:
[1] = tested on: Fmr1 KO1 transgenic mice in an FVB background; experiment: Audiogenic seizures (AGS), Fmr1 KO1 mice in FVB background; type: in vivo, mouse; conditions: tested 20 minutes after injection, audio stimulus 60 seconds at 124 db
Experimental: 4. Audiogenic Seizures (AGS) are reflex seizures generated by loud noises in genetically predisposed mice. The Fmr1 KO1 mice display audiogenic seizures depending on age and background strain, the Fmr1 KO1 mouse on the FVB background is characterized by an increased AGS susceptibility at all ages and is considered a good animal model for epilepsy. The effect of (S)-3-amino-4-(difluoromethylenyl) cyclopent-1-ene-1-carboxylic acid was tested on AGS Fmr1 KO1 transgenic mice in an FVB background. Observable criteria are: 1. normal behavior, 2. wild running, 3. seizure, and 4. respiratory arrest.
(S)-3-amino-4-(difluoromethylenyl) cyclopent-1-ene-1-carboxylic acid was administered to Fmr1 KO1 mice, males, age 2 months in the following amounts: 0.01 mg/kg, 0.05 mg/kg, and 0.1 mg/kg. Positive controls were administered 2-Methyl-6-(phenylethynyl)pyridine (MPEP), a mGluR5 antagonist, 30 mg/kg by i.p. and tested 20 minutes after injection. Audio stimulus was administered continuously for 60 seconds at 124 db.

Fmr1 KO1 mice = experiment: Open field hyperactivity (locomotor activity), Fmr1 KO1 mice; type: in vivo, mouse; conditions: 0.1 mg/Kg
From the text: (§1) Mutant fmr1 knockout (KO) mice recapitulate the Fragile X syndrome (FXS) phenotype and represent a preclinical model for assessment of putative drug treatments. In this study three different mice models of FXS were used: Fmr1 KO1 is the original Fmr1 knockout animal that carries an insertion in exon 5. See, e.g., Bakker C E, et al., The Dutch-Belgian Fragile X Consortium, Fmr1 knockout mice: A model to study fragile X mental retardation. Cell. 1994; 78:23-33 It is a protein null, although Fmr1 mRNA is still present. It is backcrossed to the C57/B16 strain. Subsequently, these mice were bred into different background strains, such as the FVB inbred mouse strain. Fmr1 KO2 is a null allele at Fmr1 generated by deletion of the promoter and first exon of Fmr1. See, Mientjes, E J et al., The generation of a conditional Fmr1 knock out mouse model to study Fmrp function in vivo. Neurobiology of Disease (2006) 21(3): 549-555. It is both protein and mRNA null. Backcrossed to the C57/B16 strain. Genotyping was accomplished using TransnetXY Automated Genotyping (http://www.transnetyx.com/). TRANSNETYX, INC., 8110 Cordova Rd. Suite 119, Cordova, TN 38016, USA.
(§2) The mice were housed in plastic cages (35×30×12 cm), 5 in each and habituated to the animal facilities for at least a week before test. The room temperature (21±2° C.), relative humidity (55±5%), a 12-h light-dark cycle (lights on 7 a.m.-7 p.m.) and air exchange (16 times per h) were automatically controlled. The animals had free access to commercial food pellets and water. Testing was conducted during the light phase. Testing was conducted on Fmr1 knockout mice and their wild-type (WT) littermates. Ten mice per treatment group, 14 weeks of age, were used for behavioral experiments. Experiments were conducted in line with the requirements of the UK Animals (Scientific Procedures) Act, 1986.
(§3) Oral dosing was performed by using 1.5-in. curved, 20-gauge, stainless steel feeding needles with a 2.25-mm ball (Braintree Scientific, Braintree, MA). Each gavage treatment was given in 0.5% methyl cellulose (Methyl Cellulose M0512, Sigma-Aldrich, St Louis, MO) used as vehicle with or without treatment compounds. The same veterinarian, blinded to the treatment groups, performed the procedure, and documented animal reactions to oral gavage. Reactions considered to indicate stress were defined as excessive struggling during gavage or abnormal behavior after gavage (labored breathing, frozen stance, exaggerated jumping, shuddering, and hunched posture).
(§4) For experiments all mice were tested once in the same apparatus. Prior to testing, mice not in the study were placed in the apparatus for some minutes before the experiment. The apparatus was then cleaned with moist and dry tissues before testing each mouse. The aim was to create a low but constant background mouse odor for all experimental subjects. All experiments were conducted with the experimenters blind to genotype and drug treatment during all testing and data analysis. Separate investigators prepared and coded dosing solutions, allocated the mice to the study treatment groups, dosed the animals, and collected the behavioral data. Data were analyzed by one-way analysis of variance (ANOVA) followed by post-hoc comparisons where appropriate using Tukey's Multiple Comparison Test. Data are represented as the mean and standard error of the mean (SEM).
1. […]

Fmr1 KO2 mice = experiment: Open field hyperactivity (locomotor activity), Fmr1 KO2 mice; type: in vivo, mouse; conditions: 0.1 mg/Kg
From the text: as §1, §2, §3, §4
1. […]

[2] = cited from earlier work; for tmax: single 37-50 mg/kg dose of an oral solution
[3] = cited from earlier work
[4] = MPEP (positive control) 30 mg/kg i.p.

Question: For Cc1cccc(C#Cc2ccccc2)n1 [MPEP, 2-Methyl-6-(phenylethynyl)pyridine, reference compound], which Seizure ([1]; 30 mg/kg i.p.) is on record?
Answer: 0/10

Question: And the Wild running ([1]; 30 mg/kg i.p.)?
Answer: 0/10

Question: What about the Incidence [1, 4] of the same compound?
Answer: 0%

Question: What about the Respiratory arrest [1, 4] of the same compound?
Answer: 0/10

Question: For N[C@H]1C=C(C(=O)O)CC1=C(F)F [(S)-3-amino-4-(difluoromethylenyl)cyclopent-1-ene-1-carboxylic acid], which “Effect on open field hyperactivity (FIG. 7)” value (Fmr1 KO1 mice) is on record?
Answer: reversed hyperactivity

Question: And the “Effect on open field hyperactivity (FIG. 1)” value (Fmr1 KO2 mice)?
Answer: significantly reduced

Question: For C=CC(N)CCC(=O)O (racemic) [vigabatrin, (RS)-4-aminohex-5-enoic acid], which “cerebrospinal concentrations as share of the plasma concentration” value ([2]; 6 h after a single oral dose) is on record?
Answer: 10%

Question: What about the terminal half-life ([2]; adults) of the same compound?
Answer: ~10.5 h

Question: What about the terminal half-life ([2]; children (10 years-16 years)) of the same compound?
Answer: ~9.5 h

Question: What about the “area under plasma concentration-time curves versus dose” value ([2]; in vivo) of the same compound?
Answer: dose-linear pharmacokinetics

Question: And the protein binding ([2]; in vivo)?
Answer: lack of protein binding

Question: And the terminal half-life ([2]; infants (5 months-2 years))?
Answer: about 5.7 hours

Question: What about the tmax ([2]; children) of the same compound?
Answer: about 1 hour

Question: And the tmax ([2]; neonates and infants)?
Answer: approximately 2.5 hours

Question: With N[C@H]1C[C@@H](C(=O)O)CC1=C(F)F [(1S,3S)-3-amino-4-(difluoromethylidene)cyclopentane-1-carboxylic acid] as the compound, how does the “increase in AUCs with dose” value ([3]; in the dose range 5 mg-500 mg) read?
Answer: greater than proportional increase

Question: What about the “Cmax increase with dose” value ([3]; over a range of 5 mg-500 mg) of the same compound?
Answer: dose proportional
